According to EP4722212A1, “NOVEL COMPOUND FOR INHIBITING PROTEIN KINASES AND PHARMACEUTICAL COMPOSITION COMPRISING SAME” (Magicbullettherapeutics Co., Ltd., priority 2023, dated 2024):
Where two headings read alike, the source gives them in different places.

Experiments:
Test in all cases: Kinase panel
Format in all cases: biochemical
AKT1 = AKT1 (Homo sapiens, UniProt P31749); details: AKT1, 1 µM; read-out: residual enzyme activity
Summary of the method: (§1)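 Biochemical full-panel kinase assay with compounds tested at a single concentration of 1 µM. Values are residual enzyme activity. Kinases were flagged when residual activity was 40% or less, i.e. inhibition of 60% or more.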

BTK = BTK (Homo sapiens, UniProt Q06187); details: read-out: residual enzyme activity
Summary of the method: as §1

C-SRC = C-SRC (Homo sapiens, UniProt P12931); details: read-out: residual enzyme activity
Summary of the method: as §1

CDK1/CYCLIN A = CDK1/CYCLIN A (Homo sapiens, UniProt P06493); details: read-out: residual enzyme activity
CDK1/CYCLIN A, sequence (P06493 whole entry, species assumed): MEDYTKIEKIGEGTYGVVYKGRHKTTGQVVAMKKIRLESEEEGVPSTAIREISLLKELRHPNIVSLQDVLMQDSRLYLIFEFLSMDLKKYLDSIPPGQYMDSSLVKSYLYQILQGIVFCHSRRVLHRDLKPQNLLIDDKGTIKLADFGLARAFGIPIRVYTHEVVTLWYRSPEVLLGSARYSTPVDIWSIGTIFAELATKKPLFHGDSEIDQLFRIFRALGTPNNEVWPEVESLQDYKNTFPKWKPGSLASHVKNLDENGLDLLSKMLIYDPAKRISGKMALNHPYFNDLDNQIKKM
CDK1/CYCLIN A, sequence (P20248 whole entry partner, species assumed): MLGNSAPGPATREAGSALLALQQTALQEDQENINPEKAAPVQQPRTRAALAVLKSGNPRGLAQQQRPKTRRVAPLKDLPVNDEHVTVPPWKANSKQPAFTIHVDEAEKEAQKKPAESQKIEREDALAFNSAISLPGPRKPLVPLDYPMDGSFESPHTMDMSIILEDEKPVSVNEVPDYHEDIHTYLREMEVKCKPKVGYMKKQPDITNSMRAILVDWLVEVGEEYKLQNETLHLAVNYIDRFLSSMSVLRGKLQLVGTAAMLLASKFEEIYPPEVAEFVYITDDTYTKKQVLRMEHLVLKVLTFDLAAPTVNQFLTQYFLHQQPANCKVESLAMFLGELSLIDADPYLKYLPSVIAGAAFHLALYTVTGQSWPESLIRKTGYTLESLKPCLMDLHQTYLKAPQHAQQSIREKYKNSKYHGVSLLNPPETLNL
Summary of the method: as §1

CDK1/CYCLIN B = CDK1/CYCLIN B (Homo sapiens, UniProt P06493); details: read-out: residual enzyme activity
CDK1/CYCLIN B, sequence (P06493 whole entry, species assumed): as the sequence (P06493 whole entry, species assumed) above
CDK1/CYCLIN B, sequence (P14635 whole entry partner, species assumed): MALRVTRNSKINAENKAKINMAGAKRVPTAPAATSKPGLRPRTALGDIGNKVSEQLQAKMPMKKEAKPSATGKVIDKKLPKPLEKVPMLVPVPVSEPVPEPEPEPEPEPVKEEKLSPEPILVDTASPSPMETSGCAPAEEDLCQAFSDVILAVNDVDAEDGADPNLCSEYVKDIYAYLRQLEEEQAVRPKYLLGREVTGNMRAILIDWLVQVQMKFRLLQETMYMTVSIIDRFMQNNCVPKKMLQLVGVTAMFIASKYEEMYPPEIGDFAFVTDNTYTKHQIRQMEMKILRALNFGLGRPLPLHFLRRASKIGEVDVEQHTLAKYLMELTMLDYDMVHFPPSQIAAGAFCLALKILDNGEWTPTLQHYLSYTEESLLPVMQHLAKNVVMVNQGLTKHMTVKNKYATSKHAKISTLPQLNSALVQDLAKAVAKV
Summary of the method: as §1

CDK1/CYCLIN E = CDK1/CYCLIN E (Homo sapiens, UniProt P06493); details: read-out: residual enzyme activity
CDK1/CYCLIN E, sequence (P06493 whole entry, species assumed): as the sequence (P06493 whole entry, species assumed) above
CDK1/CYCLIN E, sequence (P24864 whole entry partner, species assumed): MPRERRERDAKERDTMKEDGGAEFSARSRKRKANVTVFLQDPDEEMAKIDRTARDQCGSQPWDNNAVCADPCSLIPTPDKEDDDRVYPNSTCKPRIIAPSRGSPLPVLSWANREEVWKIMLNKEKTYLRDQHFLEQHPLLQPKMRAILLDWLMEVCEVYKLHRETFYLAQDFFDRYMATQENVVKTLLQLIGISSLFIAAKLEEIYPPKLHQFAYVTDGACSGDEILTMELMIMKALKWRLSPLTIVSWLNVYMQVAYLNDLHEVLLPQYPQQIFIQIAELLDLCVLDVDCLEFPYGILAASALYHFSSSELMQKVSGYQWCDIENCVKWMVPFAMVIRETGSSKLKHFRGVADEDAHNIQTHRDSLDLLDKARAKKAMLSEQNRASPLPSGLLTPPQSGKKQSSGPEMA
Summary of the method: as §1

CDK2/CYCLIN A1 = CDK2/CYCLIN A1 (Homo sapiens, UniProt P24941); details: CDK2/Cyclin A1, 1 µM; read-out: residual enzyme activity
Summary of the method: as §1

CDK9/CYCLIN K = CDK9/CYCLIN K (Homo sapiens, UniProt P50750); details: read-out: residual enzyme activity
Summary of the method: as §1

EPHA1 = EPHA1 (Homo sapiens, UniProt P21709); details: EPHA1, 1 µM; read-out: residual enzyme activity
Summary of the method: as §1

EPHB1 = EPHB1 (Homo sapiens, UniProt P54762); details: EPHB1, 1 µM; read-out: residual enzyme activity
Summary of the method: as §1

ERK1 = ERK1 (Homo sapiens, UniProt P27361); details: ERK1, 1 µM; read-out: residual enzyme activity
Summary of the method: as §1

ERK7/MAPK15 = ERK7/MAPK15 (Homo sapiens, UniProt Q8TD08); details: ERK7/MAPK15, 1 µM; read-out: residual enzyme activity
Summary of the method: as §1

GLK/MAP4K3 = GLK/MAP4K3 (Homo sapiens, UniProt Q8IVH8); details: GLK/MAP4K3, 1 µM; read-out: residual enzyme activity
Summary of the method: as §1

GRK3 = GRK3 (Homo sapiens, UniProt P35626); details: GRK3, 1 µM; read-out: residual enzyme activity
GRK3, sequence (P35626 whole entry, species assumed): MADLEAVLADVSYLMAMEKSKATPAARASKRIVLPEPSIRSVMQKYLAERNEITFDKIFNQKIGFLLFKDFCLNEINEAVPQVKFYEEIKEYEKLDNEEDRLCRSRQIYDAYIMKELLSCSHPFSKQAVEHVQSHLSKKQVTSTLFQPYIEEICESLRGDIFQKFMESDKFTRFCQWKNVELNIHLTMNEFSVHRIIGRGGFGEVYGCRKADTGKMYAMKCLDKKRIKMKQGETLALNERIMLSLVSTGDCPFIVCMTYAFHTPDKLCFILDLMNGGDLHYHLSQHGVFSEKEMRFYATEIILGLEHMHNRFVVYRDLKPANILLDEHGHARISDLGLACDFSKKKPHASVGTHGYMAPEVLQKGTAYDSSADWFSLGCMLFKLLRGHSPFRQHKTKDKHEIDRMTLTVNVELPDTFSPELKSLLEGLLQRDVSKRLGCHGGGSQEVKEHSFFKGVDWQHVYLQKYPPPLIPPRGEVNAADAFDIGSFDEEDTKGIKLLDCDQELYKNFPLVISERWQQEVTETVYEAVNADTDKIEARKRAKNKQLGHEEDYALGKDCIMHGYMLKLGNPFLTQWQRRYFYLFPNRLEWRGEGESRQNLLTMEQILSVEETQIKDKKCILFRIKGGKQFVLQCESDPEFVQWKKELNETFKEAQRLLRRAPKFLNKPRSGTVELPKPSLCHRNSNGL
Summary of the method: as §1

HCK = HCK (Homo sapiens, UniProt P08631); details: read-out: residual enzyme activity
Summary of the method: as §1

HPK1/MAP4K1 = HPK1/MAP4K1 (Homo sapiens, UniProt Q92918); details: HPK1/MAP4K1, 1 µM; read-out: residual enzyme activity
Summary of the method: as §1

IKKB/IKBKB = IKKB/IKBKB (Homo sapiens, UniProt O14920); details: read-out: residual enzyme activity
Summary of the method: as §1

IR = IR (Homo sapiens, UniProt P06213); details: read-out: residual enzyme activity
Summary of the method: as §1

IRAK4 = IRAK4 (Homo sapiens, UniProt Q9NWZ3); details: IRAK4, 1 µM; read-out: residual enzyme activity
Summary of the method: as §1

JAK3 = JAK3 (Homo sapiens, UniProt P52333); details: JAK3, 1 µM; read-out: residual enzyme activity
Summary of the method: as §1

MAPKAPK2 = MAPKAPK2 (Homo sapiens, UniProt P49137); details: MAPKAPK2, 1 µM; read-out: residual enzyme activity
MAPKAPK2, sequence (P49137 whole entry, species assumed): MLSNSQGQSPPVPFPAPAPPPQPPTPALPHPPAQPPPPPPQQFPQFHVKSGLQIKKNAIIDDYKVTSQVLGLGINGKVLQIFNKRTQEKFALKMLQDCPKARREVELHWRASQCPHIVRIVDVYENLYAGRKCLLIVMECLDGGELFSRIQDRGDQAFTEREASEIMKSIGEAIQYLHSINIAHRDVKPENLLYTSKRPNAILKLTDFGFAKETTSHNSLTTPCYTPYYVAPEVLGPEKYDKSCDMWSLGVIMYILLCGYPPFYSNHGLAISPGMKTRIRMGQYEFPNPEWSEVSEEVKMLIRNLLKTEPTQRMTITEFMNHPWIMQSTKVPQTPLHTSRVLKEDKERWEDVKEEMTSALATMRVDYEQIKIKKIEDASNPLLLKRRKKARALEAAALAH
Summary of the method: as §1

MEK3 = MEK3 (Homo sapiens, UniProt P46734); details: MEK3, 1 µM; read-out: residual enzyme activity
MEK3, sequence (P46734 whole entry, species assumed): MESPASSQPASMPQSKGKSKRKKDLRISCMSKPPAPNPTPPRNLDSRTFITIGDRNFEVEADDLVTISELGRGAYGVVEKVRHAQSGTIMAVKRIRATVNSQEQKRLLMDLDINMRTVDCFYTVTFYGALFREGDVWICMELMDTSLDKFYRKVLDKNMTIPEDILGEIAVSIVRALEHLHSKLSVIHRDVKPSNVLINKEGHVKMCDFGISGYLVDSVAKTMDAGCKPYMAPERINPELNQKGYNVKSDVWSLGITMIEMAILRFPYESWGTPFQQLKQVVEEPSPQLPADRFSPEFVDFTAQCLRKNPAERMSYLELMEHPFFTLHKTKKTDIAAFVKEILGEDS
Summary of the method: as §1

MKK4 = MKK4 (Homo sapiens, UniProt P45985); details: MKK4, 1 µM; read-out: residual enzyme activity
Summary of the method: as §1

MST4 = MST4 (Homo sapiens, UniProt Q9P289); details: MST4, 1 µM; read-out: residual enzyme activity
Summary of the method: as §1

NEK4 = NEK4 (Homo sapiens, UniProt P51957); details: NEK4, 1 µM; read-out: residual enzyme activity
Summary of the method: as §1

PAK6 = PAK6 (Homo sapiens, UniProt Q9NQU5); details: PAK6, 1 µM; read-out: residual enzyme activity
Summary of the method: as §1

PIM2 = PIM2 (Homo sapiens, UniProt Q9P1W9); details: PIM2, 1 µM; read-out: residual enzyme activity
Summary of the method: as §1

PKCB2 = PKCB2 (Homo sapiens, UniProt P05771); details: PKCb2, 1 µM; read-out: residual enzyme activity
Summary of the method: as §1

RIPK4 = RIPK4 (Homo sapiens, UniProt P57078); details: RIPK4, 1 µM; read-out: residual enzyme activity
Summary of the method: as §1

ROCK2 = ROCK2 (Homo sapiens, UniProt O75116); details: ROCK2, 1 µM; read-out: residual enzyme activity
ROCK2, sequence (O75116 whole entry, species assumed): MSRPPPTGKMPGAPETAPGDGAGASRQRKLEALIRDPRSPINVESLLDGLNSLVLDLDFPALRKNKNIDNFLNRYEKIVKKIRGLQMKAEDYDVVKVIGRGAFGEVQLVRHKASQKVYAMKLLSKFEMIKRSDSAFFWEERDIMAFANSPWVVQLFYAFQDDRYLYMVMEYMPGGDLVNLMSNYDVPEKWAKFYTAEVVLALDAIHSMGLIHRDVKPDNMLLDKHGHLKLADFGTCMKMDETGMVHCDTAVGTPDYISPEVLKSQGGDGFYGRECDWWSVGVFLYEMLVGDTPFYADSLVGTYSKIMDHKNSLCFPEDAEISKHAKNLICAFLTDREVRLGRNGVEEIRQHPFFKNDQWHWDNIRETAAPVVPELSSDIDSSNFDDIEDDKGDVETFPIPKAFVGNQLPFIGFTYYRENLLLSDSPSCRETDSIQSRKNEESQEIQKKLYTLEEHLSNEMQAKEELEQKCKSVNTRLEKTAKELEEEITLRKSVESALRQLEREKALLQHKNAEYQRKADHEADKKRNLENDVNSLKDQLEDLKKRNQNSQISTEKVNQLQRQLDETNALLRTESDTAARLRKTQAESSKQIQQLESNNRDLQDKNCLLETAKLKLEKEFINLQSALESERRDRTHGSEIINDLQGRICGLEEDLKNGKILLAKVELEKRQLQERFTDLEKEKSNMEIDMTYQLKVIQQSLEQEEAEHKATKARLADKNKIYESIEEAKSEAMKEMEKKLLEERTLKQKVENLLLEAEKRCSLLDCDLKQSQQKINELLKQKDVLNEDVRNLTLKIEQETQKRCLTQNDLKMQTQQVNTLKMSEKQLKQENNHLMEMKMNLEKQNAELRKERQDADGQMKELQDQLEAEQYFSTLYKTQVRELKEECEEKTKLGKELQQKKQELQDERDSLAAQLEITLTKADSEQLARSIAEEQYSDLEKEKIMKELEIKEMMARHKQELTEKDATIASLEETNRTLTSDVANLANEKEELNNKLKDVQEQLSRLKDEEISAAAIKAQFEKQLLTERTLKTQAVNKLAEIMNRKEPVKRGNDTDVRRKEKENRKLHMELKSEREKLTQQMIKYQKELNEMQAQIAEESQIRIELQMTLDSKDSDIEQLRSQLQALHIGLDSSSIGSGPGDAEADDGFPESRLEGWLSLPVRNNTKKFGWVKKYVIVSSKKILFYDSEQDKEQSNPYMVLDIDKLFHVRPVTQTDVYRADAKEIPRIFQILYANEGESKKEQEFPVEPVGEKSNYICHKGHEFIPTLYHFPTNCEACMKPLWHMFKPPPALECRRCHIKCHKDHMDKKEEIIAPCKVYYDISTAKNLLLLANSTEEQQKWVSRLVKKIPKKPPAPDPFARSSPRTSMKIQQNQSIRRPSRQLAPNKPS
Summary of the method: as §1

SGK1 = SGK1 (Homo sapiens, UniProt O00141); details: SGK1, 1 µM; read-out: residual enzyme activity
Summary of the method: as §1

STK38/NDR1 = STK38/NDR1 (Homo sapiens, UniProt Q15208); details: STK38/NDR1, 1 µM; read-out: residual enzyme activity
Summary of the method: as §1

YSK4/MAP3K19 = YSK4/MAP3K19 (Homo sapiens, UniProt Q56UN5); details: YSK4/MAP3K19, 1 µM; read-out: residual enzyme activity
Summary of the method: as §1

Row | SMILES | remaining activity at 1 µM (AKT1) | remaining activity at 1 µM (BTK) | remaining activity at 1 µM (CDK1/CYCLIN A) | remaining activity at 1 µM (CDK1/CYCLIN B) | remaining activity at 1 µM (CDK1/CYCLIN E) | remaining activity at 1 µM (CDK2/CYCLIN A1) | remaining activity at 1 µM (CDK9/CYCLIN K) | remaining activity at 1 µM (EPHA1) | remaining activity at 1 µM (EPHB1) | remaining activity at 1 µM (ERK1) | remaining activity at 1 µM (ERK7/MAPK15) | remaining activity at 1 µM (GLK/MAP4K3) | remaining activity at 1 µM (GRK3) | remaining activity at 1 µM (HCK) | remaining activity at 1 µM (HPK1/MAP4K1) | remaining activity at 1 µM (IKKB/IKBKB) | remaining activity at 1 µM (IR) | remaining activity at 1 µM (IRAK4) | remaining activity at 1 µM (JAK3) | remaining activity at 1 µM (MAPKAPK2) | also measured
1 | Cc1cn(-c2cc(C(=O)Nc3ccc(C)c(N4Cc5cnc(NC6CC6)nc5C5(CC5)C4=O)c3)cc(C(F)(F)F)c2)cn1 [Compound 8, N-(3-(2'-(cyclopropylamino)-7'-oxo-5'H-spiro[cyclopropane-1,8'-pyrido[4,3-d]pyrimidine]-6'(7'H)-yl)-4-methylphenyl)-3-(4-methyl-1H-imidazol-1-yl)-5-(trifluoromethyl)benzamide] | > 40% | ≤ 40% | > 40% | > 40% | > 40% | > 40% | > 40% | ≤ 40% | ≤ 40% | > 40% | > 40% | ≤ 40% | > 40% | ≤ 40% | ≤ 40% | > 40% | > 40% | > 40% | ≤ 40% | > 40% | remaining activity at 1 µM (C-SRC; C-SRC): ≤ 40%; remaining activity at 1 µM (MEK3): > 40%; remaining activity at 1 µM (MKK4): > 40%; remaining activity at 1 µM (MST4): > 40%; remaining activity at 1 µM (NEK4): ≤ 40%; remaining activity at 1 µM (PAK6): > 40%; remaining activity at 1 µM (PIM2): > 40%; remaining activity at 1 µM (PKCB2): > 40%; remaining activity at 1 µM (RIPK4): > 40%; remaining activity at 1 µM (ROCK2): > 40%; remaining activity at 1 µM (SGK1): > 40%; remaining activity at 1 µM (STK38/NDR1): > 40%; remaining activity at 1 µM (YSK4/MAP3K19): ≤ 40%
2 | Cc1ccc(Nc2ncc3c(n2)C2(CC2)C(=O)N(c2cc(NC(=O)c4cccc(C(F)(F)F)c4)ccc2C)C3)cn1 [Compound 51, N-(4-methyl-3-(2'-((6-methylpyridin-3-yl)amino)-7'-oxo-5'H-spiro[cyclopropane-1,8'-pyrido[4,3-d]pyrimidine]-6'(7'H)-yl)phenyl)-3-(trifluoromethyl)benzamide] | > 40% | ≤ 40% | > 40% | > 40% | > 40% | > 40% | > 40% | ≤ 40% | ≤ 40% | > 40% | > 40% | ≤ 40% | > 40% | ≤ 40% | ≤ 40% | > 40% | > 40% | > 40% | ≤ 40% | > 40% | remaining activity at 1 µM (C-SRC; c-Src): ≤ 40%; remaining activity at 1 µM (MEK3): > 40%; remaining activity at 1 µM (MKK4): > 40%; remaining activity at 1 µM (MST4): > 40%; remaining activity at 1 µM (NEK4): ≤ 40%; remaining activity at 1 µM (PAK6): > 40%; remaining activity at 1 µM (PIM2): > 40%; remaining activity at 1 µM (PKCB2): > 40%; remaining activity at 1 µM (RIPK4): > 40%; remaining activity at 1 µM (ROCK2): > 40%; remaining activity at 1 µM (SGK1): > 40%; remaining activity at 1 µM (STK38/NDR1): > 40%; remaining activity at 1 µM (YSK4/MAP3K19): ≤ 40%
